Source: patent EP0426029A1, “Injectable formulation for lipophilic drugs” (ABBOTT LABORATORIES, priority 1989, dated 1991)

Test system: mice
Assay: Mouse scratch test (irritation/pain at the injection site)
Format: in vivo
Experimental: A scratch test was conducted in mice to measure the response to the sensation of irritation, i.e., the pain associated with an injection. Formulations were administered subcutaneously at a dose of 5 ml/kg to groups of mice (10/group) weighing 20 to 40 g each. The number of times that each mouse scratched the injection site was then counted for exactly five minutes.

CC[C@H]1OC(=O)[C@H](C)[C@@H](O[C@H]2C[C@@](C)(OC)[C@@H](O)[C@H](C)O2)[C@H](C)[C@@H](O[C@@H]2O[C@H](C)C[C@H](N(C)C)[C@H]2O)[C@](C)(OC)C[C@@H](C)C(=O)[C@H](C)[C@@H](O)[C@]1(C)O [Clarithromycin Lactobionate, Clarithromycin lactobionate]
No. of Scratches (Table I, subcutaneous, 5 ml/kg, mice (10/group), scratches of injection site counted for five minutes, 5 mg/ml in clarithromycin): 22.0 ± 7.2
NO. OF SCRATCHES (Table II, mouse scratch test, all solutions 5 mg/ml clarithromycin, pH as shown in formulation): 15.1 ± 4.4
